These results are taken from US20250197387A1, “BCL-XL DEGRADERS AND USES THEREOF” (Kymera Therapeutics, Inc., priority 2021, published 2025).

Type in all cases: cell-based
One assay concerns MOLT-4 cells. The assay is described as follows: CTG (CellTiter-Glo) cell viability assay, MOLT-4. The note with it: Homo sapiens, MOLT-4, 72 h, 3 day incubation, read-out: CTG Cell Viability Assay - MOLT-4 3 day: Average external-IC50. On the procedure: Compound-mediated viability effect on MOLT-4 and Caki-2 was quantitatively determined using the CellTiter-Glo® Luminescent Cell Viability Assay kit from Promega (Catalog number G7570) following manufacturer's recommended procedures. Briefly, MOLT-4 and Caki-2 cells were seeded into 384 well plates (Grenier Bio-One, Catalog number 781080) with a density of 10,000 cells per well. Compounds were then added to the assay plate with final top concentration of 10 μM and 1:3 dilution series with total of 9 doses. The final DMSO concentration is normalized to 0.2%. The assay plates were incubated at 37° C., for 3 days under 5% CO2. Then the assay plate was equilibrated at room temperature for 10 minutes. To determine cell viability, 30 uL CellTiter Glo reagent was added to each well and the assay plate was centrifuged at 1000 rpm for 30 second, incubated at room temperature for 10 min, and analyzed by detecting the luminescence using a multimode plate reader (EnVision 2105, PerkinElmer). The data was then analyzed by software Prism 7.0 from GraphPad and the dose response curves are fit using a three-parameter logistic equation to calculate IC50.
The letter codes for MOLT-4 IC50 include: A (<0.1 μM); B (0.1-1.0 μM); C (>1.0-3.0 μM); and D (>3.0 μM). The letter codes for Caki-2 IC50 include: A (<0.1 μM); B (0.1-1.0 μM); C (>1.0-10.0 μM); and D (>10.0 μM).
In general terms: ATP-based viability assays read luminescence as a measure of living cells.

In assay [1] the target is T1, BCL-XL (Homo sapiens, UniProt Q07817).
T1 construct: endogenous in cells; host or cells: MOLT-4
T1 sequence (Q07817 whole entry): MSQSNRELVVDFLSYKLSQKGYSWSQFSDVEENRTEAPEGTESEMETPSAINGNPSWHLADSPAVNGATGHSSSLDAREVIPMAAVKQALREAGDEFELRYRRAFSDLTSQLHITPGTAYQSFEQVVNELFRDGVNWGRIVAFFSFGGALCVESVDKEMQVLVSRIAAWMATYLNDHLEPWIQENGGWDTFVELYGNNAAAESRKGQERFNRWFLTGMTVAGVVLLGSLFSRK
The assay is described as follows: BCL-XL degradation assay, western blot in MOLT-4 cells, 16 h. The note with it: western blot, MOLT-4 cells, 16 h; for Dmax: read-out: Bcl-xL WB in MOLT-4 degradation 16 h: Average Dmax %; for DC50: read-out: Bcl-xL WB in MOLT-4 degradation 16 h: Mean external-Abs DC50. In short, it runs like this: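 Infrared-imaged western blots quantified BCL-xL (normalised against beta-actin/GAPDH) after 16 hr, 37° C exposure of MOLT-4 cells to 0.02-10 μM compound; results given as DC50 and Dmax % bins.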
For orientation: In western blotting, separated proteins are transferred to a membrane and probed.

The target of assay [2] is T1, BCL-XL. The assay is described as follows: Bcl-xL ELISA degradation in MOLT-4 cells, 6 h. The conditions noted are these: for DC50: read-out: Bcl-xL ELISA in MOLT-4 degradation 6 h: Mean external-Abs DC50. As to the method:
The letter codes for BCL-XL DC50 include: A (<0.01 μM); B (0.01-0.1 μM); C (>[…]); D (>0.5-1.0 μM); and E (>1.0 μM). The letter codes for Dmax % include A (>75%); B (50 to 75%); C (<50%).
(In general: ELISA stands for enzyme-linked immunosorbent assay.)

SMILES strings stand for the structures. pIC50: −log10 of the molar value.

As a reminder, the pIC50 is the negative decadic logarithm of the IC50, by convention in mol/L. For `Cc1ncsc1-c1ccc([C@H](C)NC(=O)[C@@H]2C[C@@H](O)CN2C(=O)[C@@H](NC(=O)CN2CCN(CCNC(=O)c3nc(N4CCc5cccc(C(=O)Nc6nc7ccccc7s6)c5C4)ccc3-c3cnn(CC4CCCCC4)c3C)CC2)C(C)(C)C)cc1` [I-164], the pIC50 in the assay with MOLT-4 cells is 6.00 to 7.00.

Consider `Cc1cc(N(CCCC(=O)N(C)CCCCOCC(=O)N[C@H](C(=O)N2C[C@H](O)C[C@H]2C(=O)N[C@@H](C)c2ccc(-c3scnc3C)cc2)C(C)(C)C)c2ccc(-c3cnn(CC4CCCCC4)c3C)c(C(=O)O)n2)nnc1Nc1nc2ccccc2s1` [I-157], for which the pIC50 with MOLT-4 cells was less than 5.52.

For `Cc1ncsc1-c1ccc(CNC(=O)[C@@H]2C[C@@H](O)CN2C(=O)[C@@H](NC(=O)C2(F)CC2)C(C)(C)C)c(OCCCCC(=O)N2CCN(CCCC3(Cn4ncc(-c5ccc(N6CCc7cccc(C(=O)Nc8nc9ccccc9s8)c7C6)nc5C(=O)O)c4C)CCCCC3)CC2)c1` [I-169], in the assay on MOLT-4 cells, the pIC50 was 6.00 to 7.00.

Turning to `Cc1ncsc1-c1ccc([C@@H](CC(=O)N(C)CCCCCC(=O)N2CCN(CC[C@H](CSc3ccccc3)Nc3ccc(S(=O)(=O)NC(=O)c4ccc(N5CCN(CC6=C(c7ccc(Cl)cc7)CCC(C)(C)C6)CC5)cc4)cc3S(=O)(=O)C(F)(F)F)CC2)NC(=O)[C@@H]2C[C@@H](O)CN2C(=O)[C@@H](NC(=O)C2(F)CC2)C(C)(C)C)cc1` [I-159], the negative-log IC50 (pIC50) in the assay on MOLT-4 cells was 6.00 to 7.00.

Consider `Cc1ncsc1-c1ccc([C@H](CC(=O)N(C)CCCCCC(=O)N2CCN(CC[C@H](CSc3ccccc3)Nc3ccc(S(=O)(=O)NC(=O)c4ccc(N5CCN(CC6=C(c7ccc(Cl)cc7)CCC(C)(C)C6)CC5)cc4)cc3S(=O)(=O)C(F)(F)F)CC2)NC(=O)[C@@H]2C[C@@H](O)CN2C(=O)[C@@H](NC(=O)C2(F)CC2)C(C)(C)C)cc1` [I-147], for which the negative-log IC50 (pIC50) in the assay on MOLT-4 cells is 5.52 to 6.00.

On to `Cc1ncsc1-c1ccc([C@H](C)NC(=O)[C@@H]2C[C@@H](O)CN2C(=O)C(c2cc(N3CC4(CCN(CCNC(=O)c5nc(N6CCc7cccc(C(=O)Nc8nc9ccccc9s8)c7C6)ccc5-c5cnn(CC6CCCCC6)c5C)CC4)C3)no2)C(C)C)cc1` (stereo partly shown) [I-165], for which the pIC50 in the assay with MOLT-4 cells is 6.00 to 7.00.

In the case of `Cc1ncsc1-c1ccc([C@H](C)NC(=O)[C@@H]2C[C@@H](O)CN2C(=O)[C@@H](NC(=O)CCCCCC(=O)N2CCN(CC[C@H](CSc3ccccc3)Nc3ccc(S(=O)(=O)NC(=O)c4cccc(N5CCc6cccc(C(=O)Nc7nc8ccccc8s7)c6C5)n4)cc3S(=O)(=O)C(F)(F)F)CC2)C(C)(C)C)cc1` [I-160], the negative logarithm of the IC50 (pIC50) in the assay with MOLT-4 cells is less than 5.52.

As for `Cc1ncsc1-c1ccc(CNC(=O)[C@@H]2C[C@@H](O)CN2C(=O)[C@@H](NC(=O)C2(F)CC2)C(C)(C)C)c(OCC(=O)N(C)CC[C@H](CSc2ccccc2)Nc2ccc(S(=O)(=O)NC(=O)c3ccc(N4CCN(CC5=C(c6ccc(Cl)cc6)CCC(C)(C)C5)CC4)cc3)cc2S(=O)(=O)C(F)(F)F)c1` [I-161], the negative-log IC50 (pIC50) with MOLT-4 cells is less than 5.52.

With `Cc1cc(N(CCCC(=O)N(C)CCOCC(=O)N[C@H](C(=O)N2C[C@H](O)C[C@H]2C(=O)N[C@@H](C)c2ccc(-c3scnc3C)cc2)C(C)(C)C)c2ccc(-c3cnn(CC4CCCCC4)c3C)c(C(=O)O)n2)nnc1Nc1nc2ccccc2s1` [I-156], the pIC50 in the assay on MOLT-4 cells was less than 5.52.

On to `Cc1ncsc1-c1ccc([C@H](C)NC(=O)[C@@H]2C[C@@H](O)CN2C(=O)[C@@H](NC(=O)N2CC(CN3CCC(CNC(=O)c4nc(N5CCc6cccc(C(=O)Nc7nc8ccccc8s7)c6C5)ccc4-c4cnn(CC5CCCCC5)c4C)CC3)C2)C(C)(C)C)cc1` [I-153], for which the pIC50 in the assay with MOLT-4 cells is 5.52 to 6.00.

Consider `Cc1ncsc1-c1ccc([C@H](C)NC(=O)[C@@H]2C[C@@H](O)CN2C(=O)[C@@H](NC(=O)CCCCCCCCC(=O)N(C)CC#Cc2ccc(OCCCc3ccc(N4CCc5cccc(C(=O)Nc6nc7ccccc7s6)c5C4)nc3C(=O)O)c(F)c2)C(C)(C)C)cc1` [I-148], for which, in the assay on MOLT-4 cells, the pIC50 is greater than 7.00.

For `Cc1ncsc1-c1ccc(CNC(=O)[C@@H]2C[C@@H](O)CN2C(=O)[C@@H](NC(=O)C2(F)CC2)C(C)(C)C)c(OCCN2CCN(CC[C@H](CSc3ccccc3)Nc3ccc(S(=O)(=O)NC(=O)c4csc(N5CCc6cccc(C(=O)Nc7nc8ccccc8s7)c6C5)n4)cc3S(=O)(=O)C(F)(F)F)CC2)c1` [I-167], in the assay with MOLT-4 cells, the negative logarithm of the IC50 (pIC50) is 6.00 to 7.00.

Broadly, the Dmax is the greatest extent of degradation seen. As usually defined, the DC50 is the concentration giving 50% degradation. Regarding `Cc1ncsc1-c1ccc([C@H](C)NC(=O)[C@@H]2C[C@@H](O)CN2C(=O)[C@@H](NC(=O)C2CCN(c3ccc(S(=O)(=O)NC(=O)c4nc(N5CCc6cccc(C(=O)Nc7nc8cccnc8s7)c6C5)ccc4-c4cnn(CC5CCCCC5)c4C)cc3)CC2)C(C)(C)C)cc1` [I-241], at BCL-XL [1], the maximal degradation (Dmax) was greater than 75% and the DC50 was less than 10 nM. For the same compound, on BCL-XL [2], the Dmax was greater than 75% and the DC50 lay within 10 to 100 nM.

In the case of `Cc1ncsc1-c1ccc([C@H](C)NC(=O)[C@@H]2C[C@@H](O)CN2C(=O)[C@@H](NC(=O)COC2CCN(CCNC(=O)c3nc(N4CCc5cccc(C(=O)Nc6nc7ccccc7s6)c5C4)ccc3-c3cnn(CC4CCCCC4)c3C)CC2)C(C)(C)C)cc1` [I-163], the pIC50 with MOLT-4 cells is 6.00 to 7.00.

With `Cc1ncsc1-c1ccc(CNC(=O)[C@@H]2C[C@@H](O)CN2C(=O)[C@@H](NC(=O)C2(F)CC2)C(C)(C)C)c(OCC(C)N2CCN(CC[C@H](CSc3ccccc3)Nc3ccc(S(=O)(=O)NC(=O)c4ccc(N5CCN(CC6=C(c7ccc(Cl)cc7)CCC(C)(C)C6)CC5)cc4)cc3S(=O)(=O)C(F)(F)F)CC2)c1` (stereo partly shown) [I-155], in the assay on MOLT-4 cells, the pIC50 is greater than 7.00.

Regarding `Cc1ncsc1-c1ccc([C@H](C)NC(=O)[C@@H]2C[C@@H](O)CC2C(=O)[C@@H](NC(=O)CCCC(=O)N2CCN(C(=O)COC3(Cn4cc(-c5ccc(N6CCc7cccc(C(=O)Nc8nc9ccccc9s8)c7C6)nc5C(=O)O)cn4)CCCCC3)CC2)C(C)(C)C)cc1` (stereo partly shown) [I-149], the negative logarithm of the IC50 (pIC50) in the assay on MOLT-4 cells is less than 5.52.

On to `Cc1ncsc1-c1ccc([C@H](C)NC(=O)[C@@H]2C[C@@H](O)CN2C(=O)[C@@H](NC(=O)COCCN2CCC(NC(=O)c3nc(N4CCc5cccc(C(=O)Nc6nc7ccccc7s6)c5C4)ccc3-c3cnn(CC4CCCCC4)c3C)CC2)C(C)(C)C)cc1` [I-152], for which the pIC50 in the assay with MOLT-4 cells was 5.52 to 6.00.

Turning to `Cc1ncsc1-c1ccc([C@H](C)NC(=O)[C@@H]2C[C@@H](O)CN2C(=O)[C@@H](c2cc(N3CC4(CN(c5ccc(S(=O)(=O)NC(=O)c6nc(N7CCc8cccc(C(=O)Nc9nc%10ccccc%10s9)c8C7)ccc6-c6cnn(CC7CCCCC7)c6C)cc5)C4)C3)no2)C(C)C)cc1` [I-226], at BCL-XL [1], the Dmax is greater than 75% and the DC50 is less than 10 nM. On BCL-XL [2], the Dmax lay in the range of 50 to 75% and the half-maximal degradation concentration (DC50) lay in the range of 10 to 100 nM.

Turning to `Cc1ncsc1-c1ccc([C@H](C)NC(=O)[C@@H]2C[C@@H](O)CN2C(=O)[C@H](NC(=O)CCCCCCCS(=O)(=O)NC(=O)c2nc(N3CCc4cccc(C(=O)Nc5nc6ccccc6s5)c4C3)ccc2-c2cnn(CC3CCOCC3)c2C)C(C)(C)C)cc1` [I-166], the pIC50 in the assay with MOLT-4 cells was 6.00 to 7.00.

In the case of `Cc1ncsc1-c1ccc([C@H](C)NC(=O)[C@@H]2C[C@@H](O)CN2C(=O)[C@@H](NC(=O)C2(F)CC2)C(C)(C)C)c(OCCN2CCN(CC[C@H](CSc3ccccc3)Nc3ccc(S(=O)(=O)NC(=O)c4ccc(N5CCN(CC6=C(c7ccc(Cl)cc7)CCC(C)(C)C6)CC5)cc4)cc3S(=O)(=O)C(F)(F)F)CC2)c1` [I-154], the pIC50 in the assay with MOLT-4 cells is 5.52 to 6.00.

With `Cc1ncsc1-c1ccc([C@H](C)NC(=O)[C@@H]2C[C@@H](O)CN2C(=O)[C@@H](NC(=O)CCCC(=O)N(C)CCCC2(Cn3ncc(-c4ccc(N5CCc6cccc(C(=O)Nc7nc8ccccc8s7)c6C5)nc4C(=O)O)c3C)CCCCC2)C(C)(C)C)cc1` [I-150], the negative logarithm of the IC50 (pIC50) in the assay with MOLT-4 cells was 6.00 to 7.00.

Consider `Cc1ncsc1-c1ccc([C@@H](C)NC(=O)[C@@H]2C[C@@H](O)CN2C(=O)[C@@H](NC(=O)CCCCCC(=O)N(C)CCCC2(Cn3ncc(-c4ccc(N5CCc6cccc(C(=O)Nc7nc8ccccc8s7)c6C5)nc4C(=O)O)c3C)CCCCC2)C(C)(C)C)cc1` [I-162], for which the pIC50 in the assay with MOLT-4 cells was 6.00 to 7.00.
